The record followed here is patent US20240228501A1, “IMIDAZOLE-CONTAINING CONDENSED RING DERIVATIVE, PREPARATION METHOD THEREFOR, AND APPLICATION THEREOF IN MEDICINE” (CHANGCHUN GENESCIENCE PHARMACEUTICAL CO., LTD., priority 2021, published 2024).

The structures appear in SMILES notation.

For the experiment, the target named is T1, human NK-3 receptor (Homo sapiens, UniProt P29371).
T1 construct: expressed in transfected cells; host or cells: HEK293
T1 sequence (P29371 1-465): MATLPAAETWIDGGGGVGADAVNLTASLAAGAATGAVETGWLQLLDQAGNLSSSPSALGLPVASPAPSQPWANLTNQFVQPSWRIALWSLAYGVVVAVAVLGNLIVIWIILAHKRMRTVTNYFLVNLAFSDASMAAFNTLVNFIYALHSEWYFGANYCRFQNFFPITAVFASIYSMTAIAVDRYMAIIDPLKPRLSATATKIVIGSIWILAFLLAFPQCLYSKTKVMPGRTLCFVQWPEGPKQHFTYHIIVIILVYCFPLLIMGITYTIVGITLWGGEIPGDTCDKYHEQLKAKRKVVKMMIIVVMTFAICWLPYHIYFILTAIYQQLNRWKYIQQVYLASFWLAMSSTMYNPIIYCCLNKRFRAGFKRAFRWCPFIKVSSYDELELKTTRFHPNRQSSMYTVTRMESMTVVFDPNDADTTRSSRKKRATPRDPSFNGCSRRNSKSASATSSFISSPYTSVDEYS
In words: Antagonistic activity on human NK-3 receptor in human NK-3R/HEK293 stably transfected cells (Fluo-4, FLIPR, Neurokinin B as agonist). Particulars: human NK-3R/HEK293 cells. The class given is cell-based. The method, then: Test Example 1: Determination of Activity of Compounds of the Present Invention on Human NK-3 Receptor
This method is used to determine antagonistic effects of the compounds of the present invention on the activity of human NK-3 receptor proteins expressed in cell lines stably transfected with human NK-3R/HEK293.
2.1 The cell lines stably transfected with human NK-3R/HEK293 were inoculated in a 384-well cell culture plate at a inoculation density of 12,000 cells/well/25 μL, and cultured at 37° C. and 5% CO2 overnight;
2.2 20× Component A was frozen and thawed to room temperature, diluted 2× with Assay Buffer to working concentration, and kept at room temperature for later use;
2.3 The cell culture plate was equilibrated at room temperature for 10 min, the culture medium was removed, and 20 μL of Assay Buffer and 20 μL of 2× Component A […] were added, followed by centrifugation at 200 g at room temperature for 3-5 sec, and incubation at 37° C. for 2 h;
2.4 The compound was diluted 3 times with DMSO in 384 PP_DMSO plate, and then 240 nl/well of the compound was transferred into a working plate with Echo 550, centrifugated at 200 g at room temperature for 1 min; 40 μl of Assay Buffer was added into the working plate, centrifugated at 200 g at room temperature for 1 min, and then fully mixed in an oscillator at 2500 rpm for 20 min, and then centrifugated at 200 g at room temperature for 1 min for later use;
2.5 2.5 nM Neurokinin B TFA (6×) was prepared from Assay Buffer, 50 uL of which was transferred onto 3657 plate for later use;
2.6 The cell culture plate was taken out and left to stand at room temperature for 10 min, then […] the compound diluted in step 2.4 was added into corresponding wells, and the cell culture plate was left to stand at 25° C. for 30 min; and
2.7 10 μL of the compound diluted in step 2.5 was added into the corresponding experimental wells with FLIPR Tetra, and data was collected.
The antagonistic activity of the compounds of the present invention on the human NK-3 receptor was determined through the above experiments, to obtain inhibition curves of the compounds of the present invention and determine concentrations (IC50) of the corresponding compounds that inhibit 50% of the reference agonist.
`COCCc1nc(-c2nc(C)ns2)n2c1C(C)N(C(=O)c1ccc(F)cc1)CC2` (racemic) [Compound 204, rac-(R)-(4-fluorophenyl)(1-(2-methoxyethyl)-8-methyl-3-(3-methyl-1,2,4-thiadiazol-5-yl)-5,6-dihydroimidazo[1,5-a]pyrazin-7 (8H)-yl)methanone] had an IC50 of 109 nM.

Turning to `Cc1nsc(-c2nc(-c3ccncc3)c3n2CCN(C(=O)c2ccc(F)cc2)C3C)n1` (stereo not shown) [Compound 005, (4-fluorophenyl)(8-methyl-3-(3-methyl-1,2,4-thiadiazol-5-yl)-1-(pyridin-4-yl)-5,6-dihydroimidazo[1,5-a]pyrazin-7 (8H)-yl)methanone], the concentration for half-maximal inhibition (IC50) is 64.6 nM.

In the case of `CC(=O)N(C)c1nc(-c2nc(C)ns2)n2c1C(C)N(C(=O)c1ccc(F)cc1)CC2` (stereo not shown) [Compound 010, N-(7-(4-fluorobenzoyl)-8-methyl-3-(3-methyl-1,2,4-thiadiazol-5-yl)-5,6,7,8-tetrahydroimidazo[1,5-a]pyrazin-1-yl)-N-methylacetamide], the IC50 turned out to be 33.4 nM.

In turn, `Cc1nsc(-c2nc(-c3ccncc3)c3n2CCN(C(=O)c2ccc(F)cc2)[C@@H]3C)n1` [Compound 026, (R)-(4-fluorophenyl)(8-methyl-3-(3-methyl-1,2,4-thiadiazol-5-yl)-1-(pyridin-4-yl)-5,6-dihydroimidazo[1,5-a]pyrazin-7 (8H)-yl)methanone] showed a half-inhibitory concentration (IC50) of 35 nM.

`Cc1nsc(-c2nc(-c3ccncn3)c3n2CCN(C(=O)c2ccc(F)cc2)[C@@H]3C)n1` [Compound 027, (R)-(4-fluorophenyl)(8-methyl-3-(3-methyl-1,2,4-thiadiazol-5-yl)-1-(pyrimidin-4-yl)-5,6-dihydroimidazo[1,5-a]pyrazin-7 (8H)-yl)methanone]: the IC50 amounted to 29.7 nM.

For the compound `Cc1nsc(-c2nc(-c3ccnnc3)c3n2CCN(C(=O)c2ccc(F)cc2)[C@@H]3C)n1` [Compound 028, (R)-(4-fluorophenyl)(8-methyl-3-(3-methyl-1,2,4-thiadiazol-5-yl)-1-(pyridazin-4-yl)-5,6-dihydroimidazo[1,5-a]pyrazin-7 (8H)-yl)methanone], the concentration for half-maximal inhibition (IC50) is 56.3 nM.

Compound `Cc1nsc(-c2nc(N3CCOCC3)c3n2CCN(C(=O)c2ccc(F)cc2)[C@@H]3C)n1` [Compound 033, (R)-(4-fluorophenyl)(8-methyl-3-(3-methyl-1,2,4-thiadiazol-5-yl)-1-morpholino-5,6-dihydroimidazo[1,5-a]pyrazin-7 (8H)-yl)methanone] came in with an IC50 of 50.6 nM.

Take `Cc1nsc(-c2nc(NS(C)(=O)=O)c3n2CCN(C(=O)c2ccc(F)cc2)[C@@H]3C)n1` [Compound 040, (R)—N-(7-(4-fluorobenzoyl)-8-methyl-3-(3-methyl-1,2,4-thiadiazol-5-yl)-5,6,7,8-tetrahydroimidazo[1,5-a]pyrazin-1-yl)methanesulfonamide]: the concentration for half-maximal inhibition (IC50) was determined as 51.7 nM.

`Cc1cc(-c2nc(-c3nc(C)ns3)n3c2[C@@H](C)N(C(=O)c2ccc(F)cc2)CC3)ccn1` [Compound 043, (R)-(4-fluorophenyl)(8-methyl-3-(3-methyl-1,2,4-thiadiazol-5-yl)-1-(2-methylpyridin-4-yl)-5,6-dihydroimidazo[1,5-a]pyrazin-7 (8H)-yl)methanone]: the IC50 was 29.6 nM.

In turn, `Cc1nsc(-c2nc(-c3ccncc3F)c3n2CCN(C(=O)c2ccc(F)cc2)[C@@H]3C)n1` [Compound 046, (R)-(4-fluorophenyl)(1-(3-fluoropyridin-4-yl)-8-methyl-3-(3-methyl-1,2,4-thiadiazol-5-yl)-5,6-dihydroimidazo[1,5-a]pyrazin-7 (8H)-yl)methanone] yielded a half-inhibitory concentration (IC50) of 7.02 nM.

In turn, `Cc1nsc(-c2nc(-c3cc(F)nc(F)c3)c3n2CCN(C(=O)c2ccc(F)cc2)[C@@H]3C)n1` [Compound 053, (R)-(1-(2,6-difluoropyridin-4-yl)-8-methyl-3-(3-methyl-1,2,4-thiadiazol-5-yl)-5,6-dihydroimidazo[1,5-a]pyrazin-7 (8H)-yl)(4-fluorophenyl)methanone] registered an IC50 of 20.2 nM.

`CC(=O)N(C)c1nc(-c2nc(C)ns2)n2c1[C@@H](C)N(C(=O)c1ccc(F)cc1)CC2` [Compound 060, (R)—N-(7-(4-fluorobenzoyl)-8-methyl-3-(3-methyl-1,2,4-thiadiazol-5-yl)-5,6,7,8-tetrahydroimidazo[1,5-a]pyrazin-1-yl)-N-methylacetamide]: the concentration for half-maximal inhibition (IC50) was found to be 26.9 nM.

The compound `Cc1nsc(-c2nc(-c3c(F)cccc3F)c3n2CCN(C(=O)c2ccc(F)cc2)[C@@H]3C)n1` [Compound 063, (R)-(1-(2,6-difluorophenyl)-8-methyl-3-(3-methyl-1,2,4-thiadiazol-5-yl)-5,6-dihydroimidazo[1,5-a]pyrazin-7 (8H)-yl)(4-fluorophenyl)methanone] registered an IC50 of 47.6 nM.

Turning to `Cc1nsc(-c2nc(N(C)S(C)(=O)=O)c3n2CCN(C(=O)c2ccc(F)cc2)[C@@H]3C)n1` [Compound 064, (R)—N-(7-(4-fluorobenzoyl)-8-methyl-3-(3-methyl-1,2,4-thiadiazol-5-yl)-5,6,7,8-tetrahydroimidazo[1,5-a]pyrazin-1-yl)-N-methylmethanesulfonamide], the half-inhibitory concentration (IC50) stood at 80.1 nM.

The compound `Cc1nsc(-c2nc(N3CCCCC3=O)c3n2CCN(C(=O)c2ccc(F)cc2)[C@@H]3C)n1` [Compound 069, (R)-1-(7-(4-fluorobenzoyl)-8-methyl-3-(3-methyl-1,2,4-thiadiazol-5-yl)-5,6,7,8-tetrahydroimidazo[1,5-a]pyrazin-1-yl)piperidin-2-one] had an IC50 of 7.43 nM.

On to `Cc1nsc(-c2nc(N3CCOCC3=O)c3n2CCN(C(=O)c2ccc(F)cc2)[C@@H]3C)n1` [Compound 072, (R)-4-(7-(4-fluorobenzoyl)-8-methyl-3-(3-methyl-1,2,4-thiadiazol-5-yl)-5,6,7,8-tetrahydroimidazo[1,5-a]pyrazin-1-yl)morpholin-3-one], for which the half-maximal inhibitory concentration (IC50) was found to be 16.8 nM.

Turning to `COc1cc(-c2nc(-c3nc(C)ns3)n3c2[C@@H](C)N(C(=O)c2ccc(F)cc2)CC3)ccn1` [Compound 080, (R)-(1-(2-methoxypyridin-4-yl)-8-methyl-3-(3-methyl-1,2,4-thiadiazol-5-yl)-5,6-dihydroimidazo[1,5-a]pyrazin-7 (8H)-yl)(4-fluorophenyl)methanone], the IC50 is 84.5 nM.

`Cc1nsc(-c2nc(N3CCN(C)CC3=O)c3n2CCN(C(=O)c2ccc(F)cc2)[C@@H]3C)n1` [Compound 084] displayed an IC50 of 23.7 nM.

`COCC(=O)Nc1nc(-c2nc(C)ns2)n2c1[C@@H](C)N(C(=O)c1ccc(F)cc1)CC2` [Compound 089, (R)—N-(7-(4-fluorobenzoyl)-8-methyl-3-(3-methyl-1,2,4-thiadiazol-5-yl)-5,6,7,8-tetrahydroimidazo[1,5-a]pyrazin-1-yl)-2-methoxyacetamide] displayed an IC50 of 58.6 nM.

In turn, `Cc1nsc(-c2nc(N3CC=CC3=O)c3n2CCN(C(=O)c2ccc(F)cc2)[C@@H]3C)n1` [Compound 096, (R)-1-(7-(4-fluorobenzoyl)-8-methyl-3-(3-methyl-1,2,4-thiadiazol-5-yl)-5,6,7,8-tetrahydroimidazo[1,5-a]pyrazin-1-yl)-1,5-dihydro-2H-pyrrol-2-one] returned an IC50 of 67.9 nM.

As to `Cc1nsc(-c2nc(N3Cc4ccccc4CC3=O)c3n2CCN(C(=O)c2ccc(F)cc2)[C@@H]3C)n1` [Compound 100, (R)-2-(7-(4-fluorobenzoyl)-8-methyl-3-(3-methyl-1,2,4-thiadiazol-5-yl)-5,6,7,8-tetrahydroimidazo[1,5-a]pyrazin-1-yl)-1,4-dihydroisoquinolin-3 (2H)-one], the IC50 turned out to be 51.9 nM.

Consider `Cc1nsc(-c2nc(N3CCOC3=O)c3n2CCN(C(=O)c2ccc(F)cc2)[C@@H]3C)n1` [Compound 101, (R)-3-(7-(4-fluorobenzoyl)-8-methyl-3-(3-methyl-1,2,4-thiadiazol-5-yl)-5,6,7,8-tetrahydroimidazo[1,5-a]pyrazin-1-yl)oxazolidin-2-one], for which the 50% inhibitory concentration (IC50) was found to be 20.2 nM.
